These molecules were tested against T1, human nAChRα6-α3 chimera, in addition to β2 and β3^V273S subunits (Homo sapiens, UniProt P32297+Q15825) (assay: fluorescence-based calcium assay: inhibition of nicotine stimulated nAChRα6 activity (FLIPR)). Settings: HEK cell line stably expressing the receptor; 10 min pre-incubation, nicotine EC80; 10-point curve, duplicate wells; read-out: IC50.
T1 construct: expressed in transfected cells
Procedure, shortened: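 HEK cells stably expressing the human α6-α3 chimera with β2 and β3^V273S were loaded with calcium dye at 30° C. Compounds were pre-incubated for 10 min before nicotine at EC80, and the fluorescence change was read on a FLIPR. Ten-point half-log concentration-response, duplicate wells.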

T1 sequence (Q05901 25-458 V273S): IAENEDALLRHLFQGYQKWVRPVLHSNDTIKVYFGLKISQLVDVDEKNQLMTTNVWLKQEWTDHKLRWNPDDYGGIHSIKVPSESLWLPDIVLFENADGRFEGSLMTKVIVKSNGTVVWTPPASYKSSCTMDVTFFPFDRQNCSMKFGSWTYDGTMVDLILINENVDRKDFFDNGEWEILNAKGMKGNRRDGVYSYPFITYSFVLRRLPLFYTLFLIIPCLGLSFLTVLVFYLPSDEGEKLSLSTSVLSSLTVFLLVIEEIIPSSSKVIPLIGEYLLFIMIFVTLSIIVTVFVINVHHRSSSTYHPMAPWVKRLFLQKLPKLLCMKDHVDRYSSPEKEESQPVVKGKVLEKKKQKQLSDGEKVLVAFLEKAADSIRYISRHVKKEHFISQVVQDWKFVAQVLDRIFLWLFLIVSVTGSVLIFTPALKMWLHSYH
T1 sequence (P17787 26-502, stated change not applied, further chain): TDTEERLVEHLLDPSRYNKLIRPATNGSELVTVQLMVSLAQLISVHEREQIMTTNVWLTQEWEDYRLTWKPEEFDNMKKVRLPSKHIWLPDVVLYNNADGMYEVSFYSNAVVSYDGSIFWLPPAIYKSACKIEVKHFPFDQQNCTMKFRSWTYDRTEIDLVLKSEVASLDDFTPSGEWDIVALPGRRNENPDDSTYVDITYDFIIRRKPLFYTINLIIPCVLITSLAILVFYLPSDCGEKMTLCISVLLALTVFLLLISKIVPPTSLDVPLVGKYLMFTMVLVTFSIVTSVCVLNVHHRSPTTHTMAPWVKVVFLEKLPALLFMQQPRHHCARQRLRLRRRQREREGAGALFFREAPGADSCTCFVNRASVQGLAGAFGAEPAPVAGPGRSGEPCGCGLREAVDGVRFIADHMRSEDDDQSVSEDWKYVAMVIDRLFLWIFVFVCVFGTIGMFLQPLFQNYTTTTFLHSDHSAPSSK
T1 sequence (Q15825+P32297 fused with the stated changes): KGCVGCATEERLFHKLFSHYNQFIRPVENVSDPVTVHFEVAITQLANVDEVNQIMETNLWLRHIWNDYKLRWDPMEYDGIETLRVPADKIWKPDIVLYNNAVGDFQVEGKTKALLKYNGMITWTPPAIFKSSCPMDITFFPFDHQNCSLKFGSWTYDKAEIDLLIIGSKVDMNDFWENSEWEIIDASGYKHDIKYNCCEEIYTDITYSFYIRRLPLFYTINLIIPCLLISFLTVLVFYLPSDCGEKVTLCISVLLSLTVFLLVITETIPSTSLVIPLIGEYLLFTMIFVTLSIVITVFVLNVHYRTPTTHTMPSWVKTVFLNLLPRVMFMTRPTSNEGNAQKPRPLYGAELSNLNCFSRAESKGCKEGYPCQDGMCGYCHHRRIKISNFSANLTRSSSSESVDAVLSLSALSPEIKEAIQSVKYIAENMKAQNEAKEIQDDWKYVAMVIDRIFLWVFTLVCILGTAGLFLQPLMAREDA

SMILES | IC50 [µM]
Cc1nc(NCC2CCCCN2)ncc1-c1ccc(C(F)(F)F)cc1F (stereo not drawn) [Example 104, 5-(2-fluoro-4-(trifluoromethyl)phenyl)-4-methyl-N-(2-piperidinylmethyl) pyrimidin-2-amine] | 0.027
CCN1CCC[C@H]1CNc1ncc(-c2ccc(C(F)(F)F)cc2F)c(C)n1 [Example 105, (S)—N-((1-ethylpyrrolidin-2-yl)methyl)-5-(2-fluoro-4-(trifluoromethyl)phenyl)-4-methyl-pyrimidin-2-amine] | 0.05
Cc1nc(NCCC2CCCN2C)ncc1-c1ccc(C(F)(F)F)cc1F (stereo not drawn) [Example 106, 5-(2-fluoro-4-(trifluoromethyl)phenyl)-4-methyl-N-(2-(1-methylpyrrolidin-2-yl)ethyl)pyrimidin-2-amine] | 0.054
Cc1nc(NCC[C@H]2CCCN2C)ncc1-c1ccc(C(F)(F)F)cc1F [Example 106a, (R)-5-(2-fluoro-4-(trifluoromethyl)phenyl)-4-methyl-N-(2-(1-methylpyrrolidin-2-yl)ethyl)pyrimidin-2-amine] | 0.105
Cc1nc(NCC[C@@H]2CCCN2C)ncc1-c1ccc(C(F)(F)F)cc1F [Example 106b, (S)-5-(2-fluoro-4-(trifluoromethyl)phenyl)-4-methyl-N-(2-(1-methylpyrrolidin-2-yl)ethyl)pyrimidin-2-amine] | 0.138
Cc1nc(NCC2CCCN(C)C2)ncc1-c1ccc(C(F)(F)F)cc1F (stereo not drawn) [Example 107, 5-(2-fluoro-4-(trifluoromethyl)phenyl)-4-methyl-N-((1-methyl-3-piperidinyl)methyl)pyrimidin-2-amine] | 0.154
Cc1nc(NCC2CN(C)CCO2)ncc1-c1ccc(C(F)(F)F)cc1F (stereo not drawn) [Example 108, 5-(2-fluoro-4-(trifluoromethyl)phenyl)-4-methyl-N-((4-methylmorpholin-2-yl)methyl)pyrimidin-2-amine] | 0.043
Cc1nc(N[C@H]2CCCC[C@@H]2N(C)C)ncc1-c1ccc(C(F)(F)F)cc1F [Example 109, (1S,2S)—N^1-(5-(2-fluoro-4-(trifluoromethyl)phenyl)-4-methyl-pyrimidin-2-yl)-N^2,N^2-dimethyl-cyclohexane-1,2-diamine] | 0.096
Cc1nc(N[C@@H]2CCNC2)ncc1-c1ccc(C(F)(F)F)cc1F [Example 110, (R)-5-(2-fluoro-4-(trifluoromethyl)phenyl)-4-methyl-N-(pyrrolidin-3-yl)pyrimidin-2-amine] | 0.054
Cc1nc(N[C@H]2CC[C@H](N)C2)ncc1-c1ccc(C(F)(F)F)cc1F [Example 111, (1S,3S)—N^3-(5-(2-fluoro-4-(trifluoromethyl)phenyl)-4-methyl-pyrimidin-2-yl)cyclopentane-1,3-diamine] | 0.09
Cc1nc(NC[C@@H]2CCCNC2)ncc1-c1ccc(C(F)(F)F)cc1F [Example 113, (R)-5-(2-fluoro-4-(trifluoromethyl)phenyl)-4-methyl-N-((3-piperidinyl)methyl)pyrimidin-2-amine] | 0.045
Cc1nc(N[C@@H]2CNC[C@H]2O)ncc1-c1ccc(C(F)(F)F)cc1F [Example 115, (3R,4R)-4-((5-(2-fluoro-4-(trifluoromethyl)phenyl)-4-methyl-pyrimidin-2-yl)amino)pyrrolidin-3-ol] | 0.121

Same assay, conditions: IC50 (μM), HEK cell line stably expressing the receptor; 10 min pre-incubation, nicotine EC80; 10-point curve, duplicate wells

SMILES | IC50 [µM]
Cc1nc(NC[C@H]2CCCCN2)ncc1-c1ccc(C(F)(F)F)cc1F [Example 104a, (R)-5-(2-fluoro-4-(trifluoromethyl)phenyl)-4-methyl-N-(2-piperidinylmethyl)pyrimidin-2-amine] | 0.104
Cc1nc(NC[C@@H]2CCCCN2)ncc1-c1ccc(C(F)(F)F)cc1F [Example 104b, (S)-5-(2-fluoro-4-(trifluoromethyl)phenyl)-4-methyl-N-(2-piperidinylmethyl)pyrimidin-2-amine] | 0.045
Cc1nc(N[C@H]2CCCNC2)ncc1-c1ccc(C(F)(F)F)cc1F [Example 116, (S)-5-(2-fluoro-4-(trifluoromethyl)phenyl)-4-methyl-N-(3-piperidinyl) pyrimidin-2-amine] | 0.127
